Laboratory results published in patent US20080305186A1, “Method and Composition for the Treatment of Cardiac Hypertrophy” (BOARD OF REGENTS, THE UNIVERSITY OF TEXAS SYSTEM, priority 2007, published 2008).

Test system: cardiac gene expression
Assay: Microarray analysis of cardiac gene expression (GeneChip Mouse Genome 430 2.0)
Format: in vivo, mice
Experimental: Microarray Sample Preparation and Analysis. Animal hearts were rapidly removed, and the atria and right ventricles were cut and immediately plunged into TRIzol Reagent (Life Technologies). Total RNA was isolated following the manufacturer's instructions, purified by phenol-chloroform extraction and then ethanol precipitation, and 20 μg further processed for microarray analysis. Briefly, cDNA synthesis, in vitro transcription, and labeling and fragmentation to produce the oligonucleotide probes were performed as instructed by the GeneChip manufacturer (Affymetrix). The probes were first hybridized to a test array (Affymetrix) and then to the GeneChip Mouse Genome 430 2.0 Array, using the GeneChip Hybridization Oven 640. The chips were washed in a GeneChip Fluidics Station 450 (Affymetrix), and the results were visualized with a GeneChip G7 scanner (Affymetrix). RMA normalization, pairwise comparisons, Student's t test and Benjamini and Hochberg correction were subsequently performed using GeneSifter (VizX Labs, Seattle, Wash.) and Spotfire DecisionSite 8.3 (Spotfire, Inc., Somerville, Mass.).
Effects on Gene Expression Profile. […] One mouse heart was used for each array, and was performed in triplicate, generating a total of 12 arrays. GeneSifter was used to perform RMA normalization, pairwise comparisons of averaged signal intensity values, and Student's t-test with Benjamini and Hochberg correction, and Spotfire was used to perform pairwise comparisons. […] Additionally, genes that were altered between any two N or cardiac hypertrophy samples were removed, as these alterations most likely represented normal variations between mice.

C[C@H]1c2cccc(O)c2C(=O)C2=C(O)[C@]3(O)C(=O)C(C(N)=O)=C(O)[C@@H](N(C)C)[C@@H]3[C@@H](O)[C@@H]21 [doxycycline]
FC EST (GenBank BM245060, vs mice given only isoproterenol): −2.3
FC Fos-like antigen 2 (Fosl2) (GenBank BM245170, vs mice given only isoproterenol): −2.6
FC ESTs (GenBank BM246377, vs mice given only isoproterenol): −1.9
FC Cytoglobin (Cygb) (GenBank BM899392, vs mice given only isoproterenol): 1.8
FC Flavin containing monooxygenase 2 (Fmo2) (GenBank BM936480, vs mice given only isoproterenol): −2.7
FC Tripartite motif protein 24 (Trim24) (GenBank BM945528, heart, drug + isoproterenol vs isoproterenol-only mice, CH vs normal FC 1.6): −1.8 fold
FC Headcase homolog (Heca) (GenBank BQ031006, vs mice given only isoproterenol): −2.2
FC SERTA domain containing 4 (Sertad4) (GenBank BQ174721, vs mice given only isoproterenol): 2.0
FC EST (GenBank BQ176399, vs mice given only isoproterenol): −1.6
FC Sema domain, seven thrombospondin repeats (type 1 and type 1-like), transmembrane domain (TM) and short cytoplasmic domain, (semaphorin) 5A (Sema5a) (GenBank BQ176610, vs mice given only isoproterenol): −3.9
FC Transmembrane protein 38B (Tmem38b) (GenBank C77858, heart, drug + isoproterenol vs isoproterenol-only mice, CH vs normal FC 2.1): −1.5 fold
FC Mitochondrial ribosomal protein L45 (Mrpl45) (GenBank C79823, vs mice given only isoproterenol): 2.4
FC Leukemia inhibitory factor receptor (Lifr) (GenBank D17444, vs mice given only isoproterenol): −2.0
FC Tripartite motif protein 25 (Trim25) (GenBank D63902, heart, drug + isoproterenol vs isoproterenol-only mice, CH vs normal FC 1.7): −2.1 fold
FC L20048 (GenBank L20048, vs mice given only isoproterenol): −1.9
FC Cytoplasmic beta-actin (Actb) (GenBank M12481, vs mice given only isoproterenol): 3.1
FC Multidrug resistae protein (MDR) (Acb1a) (GenBank M30697, vs mice given only isoproterenol): −2.6
FC Thymoma viral proto-oogene 2 (Akt2) (GenBank NM_007434, heart, drug + isoproterenol vs isoproterenol-only mice, CH vs normal FC −1.8): 1.7 fold
FC Early B-cell factor (Ebf1) (GenBank NM_007897, vs mice given only isoproterenol): 2.1
FC Epidermal growth factor receptor pathway substrate 8 (Eps8) (GenBank NM_007945, vs mice given only isoproterenol): −1.8
FC Tumor necrosis factor receptor superfamily, member 6 (Tnfrsf6) (Fas) (GenBank NM_007987, heart, drug + isoproterenol vs isoproterenol-only mice, CH vs normal FC 2.8): −2.4 fold
FC Glutamate-cysteine ligase, modifier subunit (Gclm) (GenBank NM_008129, vs mice given only isoproterenol): −1.8
FC Jun-B oogene (Junb) (GenBank NM_008416, vs mice given only isoproterenol): −2.0
FC Potassium voltage-gated channel, shaker-related subfamily, member 5 (Kcna5) (GenBank NM_008419, vs mice given only isoproterenol): −2.4
FC NM_008808 (GenBank NM_008808, vs mice given only isoproterenol): 1.7
FC Pphospholipid scramblase 2 (Plscr2) (GenBank NM_008880, vs mice given only isoproterenol): −1.8
FC S100 calcium binding protein A9 (calgranulin B) (S100a9) (GenBank NM_009114, vs mice given only isoproterenol): −14.0
FC Tubulin, alpha 3 (Tuba3) (GenBank NM_009446, heart, drug + isoproterenol vs isoproterenol-only mice, CH vs normal FC −1.9): 1.9 fold
FC Tubulin, alpha 4 (Tuba4) (GenBank NM_009447 (first entry, r874), heart, drug + isoproterenol vs isoproterenol-only mice, CH vs normal FC −4.3): 4.7 fold
FC Tubulin, alpha 4 (Tuba4) (GenBank NM_009447 (second entry, r876), heart, drug + isoproterenol vs isoproterenol-only mice, CH vs normal FC −6.2): 5.8 fold
FC Glucocorticoid-induced leucine zipper (Gilz) (Dsip1) (GenBank NM_010286, vs mice given only isoproterenol): −2.5
FC Lymphocyte antigen 6 complex, locus C (Ly6c) (GenBank NM_010741, vs mice given only isoproterenol): −2.1
FC Matrix metalloproteinase 3 (Mmp3) (GenBank NM_010809, vs mice given only isoproterenol): −2.9
FC Notch gene homolog 4, (Drosophila) (Notch4) (GenBank NM_010929, vs mice given only isoproterenol): −2.2
FC Proline dehydrogenase (Prodh) (GenBank NM_011172, vs mice given only isoproterenol): −2.0
FC Small inducible cytokine A9 (Scya9) (Ccl9) (Mip-1[…]) (GenBank NM_011338, vs mice given only isoproterenol): −2.1
FC Interferon-related developmental regulator 1 (Ifrd1) (GenBank NM_013562, vs mice given only isoproterenol): −1.6
FC Methyl-CpG binding domain protein 1 (Mbd1) (GenBank NM_013594, vs mice given only isoproterenol): −2.6
FC Metallothionein 1 (Mt1) (GenBank NM_013602, vs mice given only isoproterenol): −2.4
FC S100 calcium binding protein A8 (calgranulin A) (S100a8) (GenBank NM_013650, vs mice given only isoproterenol): −19.9
FC Mitogen-activated protein kinase kinase kinase 6 (Map3k6) (GenBank NM_016693, vs mice given only isoproterenol): −3.2
FC Tubulin, alpha 8 (Tuba8) (GenBank NM_017379, heart, drug + isoproterenol vs isoproterenol-only mice, CH vs normal FC −3.3): 3.1 fold
FC Small inducible cytokine subfamily B (Cys-X-Cys), member 13 (Scyb13) (Cxcl13) (GenBank NM_018866, vs mice given only isoproterenol): −4.4
FC Ras-related associated with diabetes (Rrad) (GenBank NM_019662, vs mice given only isoproterenol): 2.4
FC Phosphodiesterase 4A, cAMP specific (Pde4a) (GenBank NM_019798, vs mice given only isoproterenol): 1.8
FC Toll-like receptor 4 (TLR4) (GenBank NM_021297, heart, drug + isoproterenol vs isoproterenol-only mice, CH vs normal FC 3.2): −2.6 fold
FC Solute carrier family 43, member 3 (Slc43a3) (GenBank NM_021398, vs mice given only isoproterenol): −2.0
FC Titin immunoglobulin domain protein (Myotilin, Myot) (GenBank NM_021484, heart, drug + isoproterenol vs isoproterenol-only mice, CH vs normal FC 4.8): −3.0 fold
FC Jutophilin 2 (Jph2) (GenBank NM_021566, vs mice given only isoproterenol): 2.1
FC Transformation related protein 53 inducible nuclear protein 1 (Trp53inp1) (GenBank NM_021897, heart, drug + isoproterenol vs isoproterenol-only mice, CH vs normal FC 4.8): −3.5 fold
FC Homocysteine-inducible, endoplasmic reticulum stress-inducible, ubiquitin-like domain member 1 (Herpud1) (GenBank NM_022331, vs mice given only isoproterenol): −3.0
FC Retinol binding protein 7, cellular (Rbp7) (GenBank NM_023462, vs mice given only isoproterenol): −1.6
FC Thioredoxin interacting protein (Txnip) (GenBank NM_023719, heart, drug + isoproterenol vs isoproterenol-only mice, CH vs normal FC 1.8): −3.5 fold
FC F-box only protein 32 (Fbxo32) (GenBank NM_026346, vs mice given only isoproterenol): −4.7
FC Membrane-spanning 4-domains, subfamily A, member 6d (Ms4a6d) (GenBank NM_026835, vs mice given only isoproterenol): −2.2
FC Membrane-spanning 4-domains, subfamily A, member 6B (Ms4a6b) (GenBank NM_027209, vs mice given only isoproterenol): −1.7
FC Leucine-rich alpha-2-glycoprotein (Lrg-pending) (GenBank NM_029796, vs mice given only isoproterenol): −2.9
FC Fibroblast growth factor 16 (Fgf16) (GenBank NM_030614, vs mice given only isoproterenol): 2.8
FC Transcription factor 23 (Tcf23) (GenBank NM_053085, heart, drug + isoproterenol vs isoproterenol-only mice, CH vs normal FC 3.5): −2.3 fold
FC Secretoglobin, family 3A, member 1 (Scgb3a1) (GenBank NM_054037, vs mice given only isoproterenol): −2.2
